This note sets out measurements from PubChem BioAssay (NCI).

Test systems include MCF7 breast; SNB-19 CNS; OVCAR-4 ovarian; MDA-MB-231 breast; HCC-2998 colon; 786-0 renal; NCI-H522 lung; IGROV1 ovarian; NCI/ADR-RES ovarian; RXF 393 renal.
Holding throughout (experiment): growth of human tumour cells (NCI), 48 h

Several values for one entry are separate records, joined by “and”; a condition that tells them apart may be missing. Equal values may be shown once.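 Where inhibition never reached the appropriate level, the endpoint shown equals the highest concentration tested. Otherwise, values were interpolated linearly from a five-concentration, 48-hour dose response in 96-well plates. At the GI50, growth is halved. TGI: concentration producing complete growth inhibition.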

Turning to `CCC1=C(c2ccc(OC)cc2)C(C)(C)Oc2c1ccc(O)c2CN1CCCC1`, the GI50 in the test with MCF7 breast is 1.57 µM; in the test with SNB-19 CNS it was 6.69 µM; in the test with OVCAR-4 ovarian it was 2.16 µM; with MDA-MB-231 breast, 2.39 µM; in the test on HCC-2998 colon, 1.44 µM; in the test on 786-0 renal, 4.02 µM. Further, the GI50 in the test with NCI-H522 lung was 1.97 µM; with IGROV1 ovarian, 3.84 µM; in the test with NCI/ADR-RES ovarian it was 3.05 µM; in the test on RXF 393 renal, 1.24 µM. For the same compound, the TGI in the test with MCF7 breast came out at 3.2 µM; in the test on SNB-19 CNS, 56.9 µM; in the test with OVCAR-4 ovarian, 29 µM; in the test with MDA-MB-231 breast, 4.97 µM; in the test on HCC-2998 colon, 2.88 µM; with 786-0 renal it was 20.2 µM. The TGI amounted to 3.96 µM in the test with NCI-H522 lung, 23.9 µM in the test with IGROV1 ovarian, 16 µM in the test on NCI/ADR-RES ovarian and 3.87 µM in the test with RXF 393 renal.

For `CC(C)(C)OC(=O)C1C(=O)NC(=O)CC1CC(OCc1ccccc1)C(OCc1ccccc1)C(COCc1ccccc1)OCc1ccccc1` (stereo unspecified), the GI50 in the test on MCF7 breast was 27 µM and 7.19 µM; in the test with SNB-19 CNS, 77.1 µM and 35.6 µM; with MDA-MB-231 breast it was 42.8 µM and 6.81 µM; in the test on 786-0 renal, 47.6 µM and 12.3 µM; in the test on IGROV1 ovarian, > 100 µM and 22.3 µM; in the test with NCI/ADR-RES ovarian it was 36.8 µM and 12.1 µM. Further, the TGI with MCF7 breast was > 100 µM and 89.6 µM; in the test with SNB-19 CNS, more than 100 µM; in the test on OVCAR-4 ovarian, more than 100 µM; in the test on MDA-MB-231 breast it was more than 100 µM; in the test on HCC-2998 colon, more than 100 µM; with 786-0 renal it was more than 100 µM. Besides, the TGI is more than 100 µM in the test on IGROV1 ovarian; > 100 µM and 61.7 µM with NCI/ADR-RES ovarian; 99.7 µM and 32.6 µM with RXF 393 renal.

Take `Cc1c(Cn2c(C)nc3c(C(=O)O)cc(N4CCOCC4)cc32)cccc1C(F)(F)F`: the GI50 was 42.7 µM in the test on MCF7 breast; more than 100 µM in the test on SNB-19 CNS; 42.4 µM with OVCAR-4 ovarian; more than 100 µM in the test with MDA-MB-231 breast; 72.4 µM in the test with HCC-2998 colon; 24.7 µM in the test on 786-0 renal. In addition, the GI50 in the test with NCI-H522 lung was 89 µM; in the test with IGROV1 ovarian, 40.2 µM; with NCI/ADR-RES ovarian it was 4.99 µM; with RXF 393 renal, 0.719 µM. For the same compound, the TGI in the test with MCF7 breast, in the test on SNB-19 CNS, with OVCAR-4 ovarian, in the test on MDA-MB-231 breast, with HCC-2998 colon and in the test on 786-0 renal was more than 100 µM throughout. In addition, the TGI in the test with NCI-H522 lung was more than 100 µM; in the test on IGROV1 ovarian, more than 100 µM; with NCI/ADR-RES ovarian it was 40.6 µM; in the test with RXF 393 renal, more than 63.4 µM.

`Cc1c(CN2CCN(C(=O)[C@H](C)O)CC2)sc2c(N3CCOCC3)nc(-c3cnc(N)nc3)nc12`: the GI50 in the test with MCF7 breast is 0.0428 µM and 0.0379 µM; in the test with SNB-19 CNS it was 0.898 µM and 0.313 µM; in the test on OVCAR-4 ovarian, 0.346 µM and 0.144 µM; in the test on MDA-MB-231 breast, 0.515 µM and 0.384 µM; in the test on HCC-2998 colon, 0.552 µM and 0.242 µM; in the test with 786-0 renal, 0.38 µM and 0.159 µM. Moreover, the GI50 in the test on NCI-H522 lung is 0.22 µM and 0.156 µM; with IGROV1 ovarian, 0.0161 µM and 0.0511 µM; with NCI/ADR-RES ovarian, 0.663 µM and 0.408 µM; with RXF 393 renal, 0.0603 µM and 0.119 µM. For the same compound, the TGI in the test with MCF7 breast was more than 100 µM; with SNB-19 CNS, > 10 µM and 6.16 µM; in the test with OVCAR-4 ovarian, 3.86 µM and 1.09 µM; with MDA-MB-231 breast, more than 40.6 µM; in the test on HCC-2998 colon, 9.79 µM and 13.1 µM; with 786-0 renal it was 4.72 µM and 1.11 µM. Besides, the TGI in the test on NCI-H522 lung was more than 10 µM; in the test on IGROV1 ovarian, 0.265 µM and 0.377 µM; with NCI/ADR-RES ovarian it was more than 30.2 µM; in the test on RXF 393 renal, 0.443 µM and 0.543 µM.

Turning to `CC1=C(C#N)C23C(=O)N(c4ccccc4)C(=O)C2=C(O)C=CC3(O)N1Cc1ccc(Cl)cc1Cl` (stereo unspecified), the GI50 in the test on MCF7 breast was 2.12 µM; in the test on SNB-19 CNS it was 3.8 µM; in the test with OVCAR-4 ovarian, 6.36 µM; in the test with MDA-MB-231 breast, 3.93 µM; with HCC-2998 colon it was 1.81 µM; in the test on 786-0 renal, 3.99 µM. The values for the GI50 with IGROV1 ovarian, in the test with NCI/ADR-RES ovarian and in the test with RXF 393 renal were 2.86 µM, 16.2 µM and 1.87 µM, respectively. Also, the TGI in the test on MCF7 breast worked out at 13.3 µM; in the test with SNB-19 CNS, 14.9 µM; in the test on OVCAR-4 ovarian, 19.6 µM; in the test on MDA-MB-231 breast, 16.1 µM; in the test on HCC-2998 colon it was 3.82 µM; in the test on 786-0 renal it was 14.5 µM. Further, the TGI with IGROV1 ovarian amounted to 7.19 µM; in the test on NCI/ADR-RES ovarian, 39.5 µM; with RXF 393 renal it was 3.87 µM.

`Cc1ccc(OCC2CO2)c(Br)c1` (stereo unspecified): the TGI with MCF7 breast is 34.9 µM; in the test on SNB-19 CNS, more than 100 µM; in the test with OVCAR-4 ovarian it was 29.4 µM; in the test with MDA-MB-231 breast it was 58 µM; with HCC-2998 colon it was 34.8 µM; in the test with 786-0 renal it was 62 µM. Also, the TGI with IGROV1 ovarian stood at 37.1 µM; with NCI/ADR-RES ovarian, 33 µM; with RXF 393 renal it was 26.5 µM.

As to `O=C1Nc2c(Cl)cc(Cl)cc2/C1=N/N=C/c1ccco1`, the TGI in the test with MCF7 breast is more than 100 µM; with SNB-19 CNS, more than 100 µM; with OVCAR-4 ovarian, more than 100 µM; in the test with MDA-MB-231 breast, 58 µM; in the test with HCC-2998 colon it was more than 100 µM; with 786-0 renal, more than 100 µM. Further, the TGI with IGROV1 ovarian is more than 100 µM; in the test on NCI/ADR-RES ovarian, 82.1 µM; in the test with RXF 393 renal, more than 100 µM.

Turning to `C=C(C)[C@@H]1CC[C@]2(CO)CC[C@]3(C)[C@H](CC[C@@H]4[C@@]5(C)CCCNC(C)(C)[C@@H]5CC[C@]43C)[C@@H]12`, the GI50 was 1.29 µM with MCF7 breast; 1.75 µM in the test with SNB-19 CNS; 1.77 µM in the test on MDA-MB-231 breast; 1.51 µM in the test on HCC-2998 colon; 1.62 µM with 786-0 renal; 1.66 µM in the test on IGROV1 ovarian. Also, the GI50 is 1.63 µM in the test on NCI/ADR-RES ovarian and 1.68 µM in the test with RXF 393 renal. Also, the TGI in the test on MCF7 breast was 2.77 µM; in the test on SNB-19 CNS it was 3.2 µM; with MDA-MB-231 breast, 3.21 µM; in the test on HCC-2998 colon, 2.93 µM; with 786-0 renal it was 3.16 µM; with IGROV1 ovarian, 3.26 µM. Besides, the TGI in the test on NCI/ADR-RES ovarian and in the test on RXF 393 renal was 3.18 µM in each case.

With `O=C(O)c1cccc(S(=O)(=O)NCCO)c1`, the TGI in the test on MCF7 breast, with SNB-19 CNS, in the test with OVCAR-4 ovarian, with MDA-MB-231 breast, in the test on 786-0 renal and in the test on NCI-H522 lung was more than 100 µM in each case. Also, the TGI with IGROV1 ovarian, in the test on NCI/ADR-RES ovarian and with RXF 393 renal was more than 100 µM in each case.
